Assay [1] has as its target T1, μ-opioid receptor (Homo sapiens (Human), UniProt P35372). As to the kind of experiment: μ-opioid receptor [35S]GTPγS functional assay, HEK-293 or CHO cells. The class given is biochemical. The note with it: for EC50: GTPγS; for Emax: relative to DAMGO. The protocol: (§1) μ-Opioid Receptor Functional Assay Procedures: [^35S]GTPγS functional assays were conducted using freshly thawed μ-receptor membranes prepared in-house from a cell line expressing recombinant μ opioid receptor in a HEK-293, CHO or U-2 OS cell background, or purchased from a commercial source (Perkin Elmer, Shelton, Conn.; or DiscovRx, Fremont, Calif.). Assay reactions were prepared by sequentially adding the following reagents to binding buffer (100 mM NaCl, 10 mM MgCl2, 20 mM HEPES, pH 7.4) on ice (final concentrations indicated): membrane protein (0.026 mg/mL), saponin ([…]), GDP ([…]) and [^35S]GTPγS (0.20 nM; Perkin Elmer, Shelton, Conn.). The prepared membrane solution (190 μl/well) was transferred to 96-shallow well polypropylene plates containing 10 μl of 20× concentrated stock solutions of the agonist [D-Ala^2, N-methyl-Phe^4 Gly-ol^5]-enkephalin (DAMGO) prepared in dimethyl sulfoxide (DMSO). Plates were incubated for 30 min at about 25° C. with shaking. Reactions were terminated by rapid filtration onto 96-well Unifilter GF/B filter plates (Perkin Elmer, Shelton, Conn.) using a 96-well tissue harvester (Perkin Elmer, Shelton, Conn.) followed by three filtration washes with 200 μl of ice-cold wash buffer (10 mM NaH2PO4, 10 mM Na2HPO4, pH 7.4). Filter plates were subsequently dried at 50° C. for 2-3 hours. BetaScint scintillation cocktail (Perkin Elmer, Shelton, Conn.) was added (50 μl/well) and plates were counted using a Packard Top-Count for 1 min/well. Data were analyzed using the sigmoidal dose-response curve fitting functions in GraphPad PRISM v. 3.0, or an in-house function for non-linear, sigmoidal dose-response curve-fitting.
(§2) μ-Opioid Receptor Functional Data: μ GTP EC50 is the concentration of a compound providing 50% of the maximal response for the compound at a μ-opioid receptor.
(§3) μ GTP Emax (%) is the maximal effect elicited by a compound relative to the effect elicited by DAMGO, a standard μ agonist. Generally, the μ GTP Emax (%) value measures the efficacy of a compound to treat or prevent pain or other Conditions.
(§4) In TABLE 2, activity response of certain Compounds of the Invention to the μ-, δ- and κ-opioid receptors was determined as described above for functional assays using HEK-293 or CHO cells.
A general note: GTPγS resists hydrolysis and so accumulates on activated G proteins.

Assay [2] has as its target T2, κ opioid receptor (Homo sapiens (Human), UniProt P41145). As to the kind of experiment: κ-opioid receptor [35S]GTPγS functional assay, HEK-293 or CHO cells. Format: biochemical. The note with it: for EC50: GTPγS; for Emax: relative to U69,593. Here is the method: (§5) κ-Opioid Receptor Functional Assay Procedures: Functional [^35S]GTPγS binding assays were conducted as follows. κ opioid receptor membrane solution was prepared by sequentially adding final concentrations of 0.026 μg/μl κ membrane protein (in-house), 10 μg/mL saponin, 3 μM GDP and 0.20 nM [^35S]GTPγS to binding buffer (100 mM NaCl, 10 mM MgCl2, 20 mM HEPES, pH 7.4) on ice. The prepared membrane solution (190 μl/well) was transferred to 96-shallow well polypropylene plates containing 10 μl of 20× concentrated stock solutions of agonist prepared in DMSO. Plates were incubated for 30 min at a temperature of about 25° C. with shaking. Reactions were terminated by rapid filtration onto 96-well Unifilter GF/B filter plates (Perkin Elmer, Shelton, Conn.) using a 96-well tissue harvester (Packard) and followed by three filtration washes with 200 μl ice-cold binding buffer (10 mM NaH2PO4, 10 mM Na2HPO4, pH 7.4). Filter plates were subsequently dried at 50° C. for 2-3 hours. Fifty μl/well scintillation cocktail (Perkin Elmer, Shelton, Conn.) was added and plates were counted in a Packard Top-Count for 1 min/well.
(§6) κ-Oploid Receptor Functional Data: κ GTP EC50 is the concentration of a compound providing 50% of the maximal response for the compound at a K receptor.
(§7) κ GTP Emax (%) is the maximal effect elicited by a compound relative to the effect elicited by U69,593.
as §4

The target of assay [3] is recombinant human kappa opioid receptor (κ) (Homo sapiens (Human), UniProt P41145). In words: κ-opioid receptor radioligand dose-displacement binding assay ([3H]-U69,593). Here is the method: κ-Opioid Receptor Binding Assay Procedures: Membranes from HEK-293 cells, CHO or U-2 OS cells expressing the recombinant human kappa opioid receptor (κ) (cloned in house) were prepared by lysing cells in ice cold hypotonic buffer (2.5 mM MgCl2, 50 mM HEPES, pH 7.4) (10 mL/10 cm dish) followed by homogenization with a tissue grinder/Teflon pestle. Membranes were collected by centrifugation at 30,000×g for 15 min at 4° C. and pellets were resuspended in hypotonic buffer to a final concentration of 1-3 mg/mL. Protein concentrations were determined using the BioRad protein assay reagent with bovine serum albumen as standard. Aliquots of κ receptor membranes were stored at −80° C.
Radioligand dose displacement assays used 0.4 nM [^3H]-U69,593 (GE Healthcare, Piscataway, N.J.; 40 Ci/mmole) with 15 μg membrane protein (recombinant κ opioid receptor expressed in HEK 293 cells; in-house prep) in a final volume of 200 μl binding buffer (5% DMSO, 50 mM Trizma base, pH 7.4). Non-specific binding was determined in the presence of 10 μM unlabeled naloxone or U69,593. All reactions were performed in 96-well polypropylene plates for 1 hour at a temperature of about 25° C. Binding reactions were terminated by rapid filtration onto 96-well Unifilter GF/C filter plates (Perkin Elmer, Shelton, Conn.) presoaked in 0.5% polyethylenimine (Sigma). Harvesting was performed using a 96-well tissue harvester (Perkin Elmer, Shelton, Conn.) followed by five filtration washes with 200 μl ice-cold binding buffer. Filter plates were subsequently dried at 50° C. for 1-2 hours. Fifty μl/well scintillation cocktail (Perkin Elmer, Shelton, Conn.) was added and plates were counted in a Packard Top-Count for 1 min/well.
In TABLE 1, binding affinity of certain Compounds of the Invention to the μ-, δ- and κ-opioid receptors was determined as described above.

Assay [4] concerns the target T1, μ-opioid receptor. In words: μ-opioid receptor [35S]GTPγS functional assay, U-2 OS cells. Format: biochemical. The note with it: for EC50: GTPγS; for Emax: relative to DAMGO. The protocol:
as §1, §2, §3
(§8) The following TABLE 3 provides results on the activity response of certain Compounds of the Invention at the μ- and κ-opioid receptors determined as described above using U-2 OS cells.

Assay [5] deals with T2, κ opioid receptor. In words: κ-opioid receptor [35S]GTPγS functional assay, U-2 OS cells. Format: biochemical. The note with it: for EC50: GTPγS; for Emax: relative to U69,593. The protocol:
as §5, §6, §7, §8

In US8937084B2, “Nitrogen containing morphinan derivatives and the use thereof” (Purdue Pharma L.P., priority 2012, dated 2015) one finds EC50, Emax and Ki data, which are given here for eight compounds.

For `COc1ccc(CN2C=C3[C@H]4Cc5ccc(OC)cc5[C@@]3(CCN4CC3CC3)CC2=O)cc1` [Compound 2, (5R,10bR)-13-(cyclopropylmethyl)-9-methoxy-3-(4-methoxybenzyl)-5,6-dihydro-1H-5,10b-(epiminoethano)benzo[f]isoquinolin-2(3H)-one], on μ-opioid receptor [1], the midpoint of the response, the EC50, lay at 268 ± 44 nM and the Emax worked out at 95.3%. On κ opioid receptor [2], this compound displayed an EC50 of 714 ± 256 nM and an Emax of 68.8%.

As for `COc1ccc2c(c1)[C@]13CCN(CC4CC4)[C@H](C2)[C@@H]1CNC(=O)C3` [Compound 3, (4aS,5R,10bS)-13-(cyclopropylmethyl)-9-methoxy-4,4-a,5,6-tetrahydro-1H-5,10b-(epiminoethano)benzo[f]isoquinolin-2(3H)-one], the Ki in assay [3] is 5.84 ± 0.59 nM. Moreover, the EC50 at μ-opioid receptor [1] came out at 856 ± 48.7 nM; at κ opioid receptor [2], 435 ± 74 nM. The values for the Emax on μ-opioid receptor [1] and at κ opioid receptor [2] were 62.7% and 84%, respectively.

As to `COc1ccc(CN2CC[C@]34CCN(CC5CC5)[C@H](Cc5ccc(OC)cc53)[C@@H]4C2)cc1` [Compound 9, (4aS,5R,10bR)-13-(cyclopropylmethyl)-9-methoxy-3-(4-methoxybenzyl)-2,3,4,4a,5,6-hexahydro-1H-5,10b-(epiminoethano)benzo[f]isoquinoline], in assay [3], the Ki came to 204 ± 48.6 nM. At μ-opioid receptor [1], this compound displayed an EC50 of 732 ± 70.1 nM and an Emax of 89%. On κ opioid receptor [2], the concentration for a half-maximal effect (EC50) was found to be 1990 ± 339 nM and the Emax amounted to 46.7%.

Turning to `COc1ccc2c(c1)[C@@]13CCNC[C@H]1[C@@H](C2)N(CC1CC1)CC3` [Compound 10, (4aS,5R,10bR)-13-(cyclopropylmethyl)-9-methoxy-2,3,4,4a,5,6-hexahydro-1H-5,10b-(epiminoethano)benzo[f]isoquinoline], the Ki in assay [3] is 37 ± 7.96 nM. On μ-opioid receptor [1], this compound had an EC50 of 2180 ± 394 nM and an Emax of 66.7%. On κ opioid receptor [2], this compound yielded an EC50 of 2180 ± 562 nM and an Emax of 71.3%.

For `NC(=O)CN1CC[C@]23CCN(CC4CC4)[C@H](Cc4ccc(O)cc42)[C@@H]3C1` [Compound 11, 2-((4aS,5R,10bR)-13-(cyclopropylmethyl)-9-hydroxy-4,4-a,5,6-tetrahydro-1H-5,10b-(epiminoethano)benzo[f]isoquinolin-3(2H)-yl)acetamide], the Ki in assay [3] was 0.26 nM. Further, the EC50 on μ-opioid receptor [1] was 2.44 ± 0.76 nM; on κ opioid receptor [2] it was 5.25 ± 1.09 nM; on μ-opioid receptor [4], 2.41 ± 0.36 nM; at κ opioid receptor [5] it was 0.92 ± 0.15 nM. Further, the Emax came out at 87.2% on μ-opioid receptor [1], 63% at κ opioid receptor [2], 39.3 ± 3.28% on μ-opioid receptor [4] and 102 ± 2.33% at κ opioid receptor [5].

Take `Oc1ccc(CN2CC[C@]34CCN(CC5CC5)[C@H](Cc5ccc(O)cc53)[C@@H]4C2)cc1` [Compound 12, (4aS,5R,10bR)-13-(cyclopropylmethyl)-3-(4-hydroxybenzyl)-2,3,4,4a,5,6-hexahydro-1H-5,10b-(epiminoethano)benzo[f]isoquinolin-9-ol]: in assay [3], the Ki is 0.98 ± 0.25 nM. Besides, the EC50 on μ-opioid receptor [1] worked out at 6.87 ± 0.84 nM; at κ opioid receptor [2], 20.8 ± 2.53 nM; at μ-opioid receptor [4], 7.11 ± 2.99 nM; at κ opioid receptor [5], 6.51 ± 1.03 nM. Further, the Emax at μ-opioid receptor [1] is 58%; on κ opioid receptor [2], 54.3%; at μ-opioid receptor [4], 47 ± 8.14%; on κ opioid receptor [5], 110 ± 2.73%.

Turning to `C[C@H](N)C(=O)N1CC[C@]23CCN(CC4CC4)[C@H](Cc4ccc(O)cc42)[C@@H]3C1` [Compound 14, (S)-2-amino-1-((4aS,5R,10bS)-13-(cyclopropylmethyl)-9-hydroxy-4,4-a,5,6-tetrahydro-1H-5,10b-(epiminoethano)benzo[f]isoquinolin-3(2H)-yl)propan-1-one], in assay [3], the Ki worked out at 0.09 ± 0.02 nM. The EC50 at μ-opioid receptor [1] amounted to 4.62 ± 1.55 nM; on κ opioid receptor [2] it was 1.98 ± 0.51 nM; at μ-opioid receptor [4], 9.82 ± 1.96 nM; on κ opioid receptor [5], 0.16 ± 0.025 nM. Moreover, the Emax at μ-opioid receptor [1] was found to be 82.7%; on κ opioid receptor [2], 86%; on μ-opioid receptor [4], 35.3 ± 4.18%; on κ opioid receptor [5], 104 ± 3.61%.

For `O=C(O)CN1CC[C@]23CCN(CC4CC4)[C@H](Cc4ccc(O)cc42)[C@@H]3C1` [Compound 15, 2-((4aS,5R,10bR)-13-(cyclopropylmethyl)-9-hydroxy-4,4-a,5,6-tetrahydro-1H-5,10b-(epiminoethano)benzo[f]isoquinolin-3(2H)-yl)acetic acid], in assay [3], the Ki is 2.52 ± 0.97 nM. Also, the EC50 on μ-opioid receptor [1] stood at 28.6 ± 9.31 nM; on κ opioid receptor [2] it was 55 ± 18.9 nM; at μ-opioid receptor [4], 20.8 ± 0.89 nM; at κ opioid receptor [5], 5.44 ± 0.39 nM. Moreover, the Emax at μ-opioid receptor [1] was determined as 53.3%; at κ opioid receptor [2] it was 73.3%; at μ-opioid receptor [4], 27 ± 3%; on κ opioid receptor [5], 108 ± 4.7%.

One may read the EC50 as the concentration at which the effect is half-maximal. Higher therefore signals lower potency in that assay. By Emax is commonly meant the maximal effect, on the per cent scale that the assay sets. A word on the Ki: it is a dissociation constant, usually derived from enzyme kinetics or from competition with a known ligand.
